From patent US7649012B2, “Compounds, pharmaceutical compositions containing same, and methods of use for same” (FASgen, Inc., priority 2002, dated 2010)
≈ marks a conversion by molar mass, not a printed value. Where two headings read alike, the source gives them in different places.

Tests used:
[1] = Weight loss screen in Balb/C mice; assay type: in vivo; conditions: for change in vivo at 60 mg/kg: ip; for Deaths in weight loss screen: 60 mg/kg
Description: Balb/C mice (Jackson Labs) are utilized for the initial weight loss screening. Animals are housed in temperature and 12 hour day/night cycle rooms and fed mouse chow and water ad lib. Three mice are utilized for each compound tested with vehicle controls in triplicate per experiment. For the experiments, mice are housed separately for each compound tested three mice to a cage. […] Mice are observed and weighed daily; average weights and standard errors are computed with Excel (Microsoft). The experiment continues until treated animals reach their pretreatment weights. […]

[2] = system: Enterococcus faecalis (ATCC # 29212); assay: Broth microdilution MIC; assay type: cell-based; conditions: for MIC: Enterococcus faecalis, ATCC29212
Description: (§1) A broth microdilution assay is used to assess the antimicrobial activity of the compounds. […] Microorganisms tested include Staphylococcus aureus (ATCC # 29213), Enterococcus faecalis (ATCC # 29212), Pseudomonas aeruginosa (ATCC # 27853), and Escherichia coli (ATCC # 25922). The assay is performed in two growth media, Mueller Hinton Broth and Trypticase Soy Broth. […] Colonies are suspended in sterile broth so that the turbidity matches the turbidity of a 0.5 McFarland standard. The inoculum is diluted 1:10 in sterile broth (Mueller Hinton or Trypticase soy) and 195 ul is dispensed per well of a 96-well plate. The compounds to be tested, dissolved in DMSO, are added to the wells in 5 ul volume at the following concentrations: 25, 12.5, 6.25, 3.125, 1.56 and 0.78 ug/ml in duplicate. Additional concentrations are tested if required. 5 ul of DMSO added to duplicate wells are the vehicle control. Serial dilutions of positive control compounds, vancomycin (E. faecalis and S. aureus) and tobramycin (E. coli and P. aeruginosa), are included in each run. After 24 hours of incubation at 37° C., plates are read at OD600 on a Molecular Devices SpectraMax Plus Spectrophotometer. Average OD600 values are computed using SOFTmax Pro Software (Molecular Devices) and MIC values are determined by linear regression analysis using Prism version 3.02 (Graph Pad Software, San Diego).

[3] = system: Escherichia coli (ATCC # 25922); assay: Broth microdilution MIC; assay type: cell-based; conditions: for MIC: Escherichia coli, ATCC25922
Description: as §1

[4] = system: Pseudomonas aeruginosa (ATCC # 27853); assay: Broth microdilution MIC; assay type: cell-based; conditions: for PSAE/MH(MIC): Mueller Hinton Broth; for PSAE/Tsoy(MIC): Trypticase Soy Broth
Description: as §1

[5] = system: Staphylococcus aureus (ATCC # 29213); assay: Broth microdilution MIC; assay type: cell-based; conditions: for MIC: Staphylococcus aureus, ATCC29213
Description: as §1

purified human FAS = molecular target: T1, purified human FAS (Homo sapiens, UniProt P49327); assay: Measurement of FAS enzymatic activity (NADPH oxidation), IC50; assay type: biochemical
T1 construct: Human FAS was purified from cultured ZR-75-1 human breast cancer cells; endogenous in cells; host or cells: ZR-75-1 human breast cancer cells (ATCC); endogenous enzyme purified by PEG precipitation and Mono Q anion exchange
T1 sequence (P49327 whole entry): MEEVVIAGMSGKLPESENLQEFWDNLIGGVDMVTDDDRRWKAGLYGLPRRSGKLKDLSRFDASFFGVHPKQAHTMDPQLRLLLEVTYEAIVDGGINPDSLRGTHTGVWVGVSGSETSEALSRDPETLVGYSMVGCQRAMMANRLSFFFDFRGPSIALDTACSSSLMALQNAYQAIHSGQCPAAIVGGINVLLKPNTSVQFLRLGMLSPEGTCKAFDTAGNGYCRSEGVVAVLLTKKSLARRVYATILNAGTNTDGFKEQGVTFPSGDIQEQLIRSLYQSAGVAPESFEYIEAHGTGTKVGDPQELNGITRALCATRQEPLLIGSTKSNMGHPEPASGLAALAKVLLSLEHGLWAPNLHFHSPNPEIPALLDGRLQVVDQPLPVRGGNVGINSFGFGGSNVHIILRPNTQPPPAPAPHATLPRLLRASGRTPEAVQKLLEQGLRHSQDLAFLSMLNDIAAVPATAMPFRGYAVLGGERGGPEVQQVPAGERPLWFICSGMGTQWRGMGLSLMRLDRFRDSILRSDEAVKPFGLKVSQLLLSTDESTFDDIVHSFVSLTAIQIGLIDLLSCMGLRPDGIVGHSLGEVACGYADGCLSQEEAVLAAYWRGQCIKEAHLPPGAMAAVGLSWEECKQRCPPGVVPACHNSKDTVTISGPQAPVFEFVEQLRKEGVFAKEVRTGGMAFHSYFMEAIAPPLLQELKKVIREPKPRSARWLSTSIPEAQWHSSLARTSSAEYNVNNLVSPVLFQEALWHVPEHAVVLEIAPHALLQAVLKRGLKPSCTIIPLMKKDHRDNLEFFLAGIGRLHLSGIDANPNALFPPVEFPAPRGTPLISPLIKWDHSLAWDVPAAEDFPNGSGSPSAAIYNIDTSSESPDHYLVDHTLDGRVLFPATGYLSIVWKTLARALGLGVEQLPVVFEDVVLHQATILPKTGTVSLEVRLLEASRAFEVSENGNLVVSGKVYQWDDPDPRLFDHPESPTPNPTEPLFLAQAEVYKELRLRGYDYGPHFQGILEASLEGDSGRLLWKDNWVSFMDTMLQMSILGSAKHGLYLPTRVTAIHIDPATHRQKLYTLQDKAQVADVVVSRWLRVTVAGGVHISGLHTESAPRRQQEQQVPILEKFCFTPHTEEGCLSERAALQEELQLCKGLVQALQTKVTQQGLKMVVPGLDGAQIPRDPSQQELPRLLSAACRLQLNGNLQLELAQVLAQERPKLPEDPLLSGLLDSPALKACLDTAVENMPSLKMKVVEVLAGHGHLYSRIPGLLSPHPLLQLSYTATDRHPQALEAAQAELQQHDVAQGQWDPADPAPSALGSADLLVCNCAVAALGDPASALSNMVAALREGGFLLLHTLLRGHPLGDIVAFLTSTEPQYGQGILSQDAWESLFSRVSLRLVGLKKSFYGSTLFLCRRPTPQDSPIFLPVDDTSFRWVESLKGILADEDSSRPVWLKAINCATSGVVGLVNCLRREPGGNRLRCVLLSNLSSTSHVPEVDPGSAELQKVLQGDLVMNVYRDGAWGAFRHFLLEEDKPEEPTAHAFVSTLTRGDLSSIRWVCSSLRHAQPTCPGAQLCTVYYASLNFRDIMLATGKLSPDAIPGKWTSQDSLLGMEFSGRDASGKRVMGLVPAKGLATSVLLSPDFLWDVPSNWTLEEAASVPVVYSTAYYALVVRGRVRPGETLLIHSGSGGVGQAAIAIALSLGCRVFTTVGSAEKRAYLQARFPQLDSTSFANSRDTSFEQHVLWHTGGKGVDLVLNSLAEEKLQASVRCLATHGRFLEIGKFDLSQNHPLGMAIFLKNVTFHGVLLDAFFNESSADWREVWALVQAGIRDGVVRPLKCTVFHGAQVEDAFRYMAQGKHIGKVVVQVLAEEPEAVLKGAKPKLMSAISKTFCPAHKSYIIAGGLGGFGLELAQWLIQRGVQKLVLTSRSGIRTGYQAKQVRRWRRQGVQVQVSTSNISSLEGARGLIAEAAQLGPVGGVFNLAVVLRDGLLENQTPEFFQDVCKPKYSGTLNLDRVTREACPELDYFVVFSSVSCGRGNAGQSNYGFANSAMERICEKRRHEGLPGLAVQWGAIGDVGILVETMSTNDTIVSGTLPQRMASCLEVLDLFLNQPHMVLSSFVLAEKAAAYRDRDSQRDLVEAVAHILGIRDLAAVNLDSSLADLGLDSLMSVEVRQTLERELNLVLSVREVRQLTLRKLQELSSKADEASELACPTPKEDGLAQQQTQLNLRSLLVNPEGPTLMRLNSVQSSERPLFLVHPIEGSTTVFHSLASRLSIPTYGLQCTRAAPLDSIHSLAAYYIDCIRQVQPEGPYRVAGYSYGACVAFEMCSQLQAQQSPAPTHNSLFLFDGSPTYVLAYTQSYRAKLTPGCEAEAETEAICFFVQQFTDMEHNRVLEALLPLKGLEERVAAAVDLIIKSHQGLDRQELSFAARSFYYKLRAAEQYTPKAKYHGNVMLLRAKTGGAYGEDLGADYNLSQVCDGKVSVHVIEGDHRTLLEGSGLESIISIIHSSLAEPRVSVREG
Description: Human FAS was purified from cultured ZR-75-1 human breast cancer cells obtained from the American Type Culture Collection. The procedure, adapted from Linn et al., 1981, and Kuhajda et al., 1994, utilizes hypotonic lysis, successive polyethyleneglycol (PEG) precipitations, and anion exchange chromatography. […] The lysate is centrifuged in JA-20 rotor (Beckman) at 20,000 rpm for 30 minutes at 4° C. and the supernatant is brought to 42 ml with lysis buffer. A solution of 50% PEG 8000 in lysis buffer is added slowly to the supernatant to a final concentration of 7.5%. After rocking for 60 minutes at 4° C., the solution is centrifuged in JA-20 rotor (Beckman) at 15,000 rpm for 30 minutes at 4° C. […] After the rocking and centrifugation is repeated as above, the pellet is resuspended overnight at 4° C. in 10 ml of Buffer A (20 mM K2HPO4, pH 7.4). After 0.45 μM filtration, the protein solution is applied to a Mono Q 5/5 anion exchange column (Pharmacia). The column is washed for 15 minutes with buffer A at 1 ml/minute, and bound material is eluted with a linear 60-ml gradient over 60 minutes to 1 M KCl. […] FAS protein concentration is determined using the Coomassie Plus Protein Assay Reagent (Pierce) according to manufacturer's specifications using BSA as a standard. This procedure results in substantially pure preparations of FAS (>95%) as judged by Coomassie-stained gels. FAS activity is measured by monitoring the malonyl-CoA dependent oxidation of NADPH spectrophotometrically at OD340 in 96-well plates (Dils et al and […] et al, 1975). […] For each experiment, cerulenin (Sigma) is run as a positive control along with DMSO controls, inhibitors, and blanks (no FAS enzyme) all in duplicate. The assay is performed on a Molecular Devices SpectraMax Plus Spectrophotometer. The plate containing FAS, buffers, inhibitors, and controls are placed in the spectrophotometer heated to 37° C. Using the kinetic protocol, the wells are blanked on duplicate wells containing 100 μl of 100 mM K2HPO4, pH 6.5 and the plate is read at OD340 at 10 sec intervals for 5 minutes to measure any malonyl-CoA independent oxidation of NADPH. The plate is removed from the spectrophotometer and malonyl-CoA (67.4 μM, final concentration per well) and […] (61.8 μM, final concentration per well) are added to each well except to the blanks. The plate is read again as above with the kinetic protocol to measure the malonyl-CoA dependent NADPH oxidation. The difference between the Δ OD340 for the malonyl-CoA dependent and non-malonyl-CoA dependent NADPH oxidation is the specific FAS activity. Because of the purity of the FAS preparation, non-malonyl-CoA dependent NADPH oxidation is negligible. […] Graphs of Δ OD340 versus time are plotted by the SOFTmax PRO software (Molecular Devices) for each compound concentration.

[6] = Mus musculus, 24 h, 60 mg/kg intraperitoneally, day1, read-out: Weight Loss
[7] = Mueller Hinton Broth, read-out: SA/MH(MIC)
[8] = Trypticase Soy Broth, read-out: SA/Tsoy(MIC)
[9] = Mueller Hinton Broth, read-out: EF/MH(MIC)
[10] = Mueller Hinton Broth, read-out: Ecoli/MH(MIC)
[11] = Mus musculus, 72 h, 60 mg/kg intraperitoneally, day3, read-out: Weight Loss
[12] = Trypticase Soy Broth, read-out: EF/Tsoy(MIC)
[13] = Trypticase Soy Broth, read-out: Ecoli/Tsoy(MIC)
[14] = Mus musculus, 24 h, read-out: Weight Loss
[15] = Mus musculus, 48 h, 60 mg/kg intraperitoneally, day2, read-out: Weight Loss
[16] = Mus musculus, 48 h, read-out: Weight Loss

Structure (SMILES)	Ecoli/MH(MIC) ([3]; Mueller Hinton Broth)	Ecoli/Tsoy(MIC) ([3]; Trypticase Soy Broth)	PSAE/MH(MIC) [4]	PSAE/Tsoy(MIC) [4]	MIC [5, 7]	MIC [5, 8]	IC50 (purified human FAS)	MIC [2, 9]	MIC [2, 12]	MIC [3, 13]	FAS(IC50) (purified human FAS)	further results
C/C=C/C(C)=C/C1(C)SC(=O)C=C1O (stereo not shown)	Neg	Neg	Neg	Neg	52 µg/mL (≈ 247 µM)	87 µg/mL (≈ 414 µM)	339 µM					change in vivo at 60 mg/kg [1, 6]: 4.1%; EF/MH(MIC) ([2]; Mueller Hinton Broth): Neg; EF/Tsoy(MIC) ([2]; Trypticase Soy Broth): Neg
CC/C=C/C=C/C1(C)SC(=O)C=C1O (stereo not shown)		Neg	Neg	Neg	202 µg/mL (≈ 961 µM)	85 µg/mL (≈ 404 µM)	238 µM	186 µg/mL (≈ 884 µM)				change in vivo at 60 mg/kg ([1]; Mus musculus, 120 h, 60 mg/kg intraperitoneally, day5, read-out: Weight Loss): 3.2%; EF/Tsoy(MIC) ([2]; Trypticase Soy Broth): Neg; MIC [3, 10]: 225 µg/mL (≈ 1070 µM)
C=C/C(C)=C/C1(C)SC(=O)C=C1O (stereo not shown)					235 µg/mL (≈ 1200 µM)	102 µg/mL (≈ 520 µM)	44.8 µM	220 µg/mL (≈ 1120 µM)				change in vivo at 60 mg/kg [1, 11]: 7.8%; MIC [3, 10]: 290 µg/mL (≈ 1480 µM)
CCCC/C=C/C=C/C1(C)SC(=O)C=C1O (stereo not shown)	Neg		Neg	Neg		55 µg/mL (≈ 231 µM)	36.1 µM	78 µg/mL (≈ 327 µM)	42 µg/mL (≈ 176 µM)	263 µg/mL (≈ 1100 µM)		change in vivo at 60 mg/kg ([1]; Mus musculus, 144 h, read-out: Weight Loss): 11%; SA/MH(MIC) ([5]; Mueller Hinton Broth): Neg
CCCCCCC1(C)SC(=O)C=C1O (stereo not shown)	Neg	Neg	Neg	Neg	48 µg/mL (≈ 224 µM)	31 µg/mL (≈ 145 µM)		98 µg/mL (≈ 457 µM)	43 µg/mL (≈ 201 µM)		Neg	Deaths in weight loss screen ([1]; day4, three mice): 60 mg/kg: 3 of 3 dead(day4)
CCCCCCCCC1(C)SC(=O)C=C1O (stereo not shown)	Neg		Neg	Neg		47 µg/mL (≈ 194 µM)	18.6 µM	16.9 µg/mL (≈ 69.7 µM)	3.3 µg/mL (≈ 13.6 µM)	278 µg/mL (≈ 1150 µM)		change in vivo at 30 mg/kg ([1]; Mus musculus, 72 h, read-out: Weight Loss): 4.8%; SA/MH(MIC) ([5]; Mueller Hinton Broth): Neg
CCCCCCCCC1(C)SC(=O)C(C)=C1O (stereo not shown)	Neg		Neg	Neg	45 ± 2 µg/mL (≈ 175 µM)	23.5 ± 0.4 µg/mL (≈ 91.6 µM)	192 µM	44 µg/mL (≈ 172 µM)	105 µg/mL (≈ 409 µM)	290 µg/mL (≈ 1130 µM)		change in vivo at 30 mg/kg [1, 14]: 1%; change in vivo at 60 mg/kg [1, 6]: 0%
CCCCCCC1(C)SC(=O)C=C1OC (stereo not shown)	Neg		Neg	Neg	45 µg/mL (≈ 197 µM)	48 µg/mL (≈ 210 µM)		43 µg/mL (≈ 188 µM)	126 µg/mL (≈ 552 µM)	264 µg/mL (≈ 1160 µM)	Neg	Deaths in weight loss screen ([1]; day1, three mice): 3 of 3 dead; change in vivo at 30 mg/kg ([1]; Mus musculus, 24 h, 30 mg/kg, day1, read-out: Weight Loss): 8.7%; change in vivo at 10 mg/kg ([1]; Mus musculus, 72 h, 10 mg/kg (multiple doses), day3): 1%
CCCCCCCCC1(C)SC(=O)C=C1OC (stereo not shown)	Neg	Neg	Neg	Neg	252 µg/mL (≈ 983 µM)	67 µg/mL (≈ 261 µM)		72 µg/mL (≈ 281 µM)			Neg	change in vivo at 60 mg/kg [1, 6]: 6.1%; EF/Tsoy(MIC) ([2]; Trypticase Soy Broth): Neg
C=CCC1=C(OC)C(C)(CCCCCCCC)SC1=O (stereo not shown)	Neg	Neg	Neg	Neg		98 µg/mL (≈ 331 µM)			169 µg/mL (≈ 570 µM)		Neg	change in vivo at 60 mg/kg [1, 6]: 7.9%; EF/MH(MIC) ([2]; Mueller Hinton Broth): Neg; SA/MH(MIC) ([5]; Mueller Hinton Broth): Neg
CCCCCCCCC1(C)SC(=O)C=C1OC(=O)OCC (stereo not shown)					45 µg/mL (≈ 143 µM)	83 µg/mL (≈ 264 µM)		86 µg/mL (≈ 273 µM)	62 µg/mL (≈ 197 µM)			change in vivo at 30 mg/kg ([1]; Mus musculus, 96 h, 30 mg/kg, day4, read-out: Weight Loss): 1.3%; change in vivo at 60 mg/kg [1, 15]: 6.9%; IC50 (purified human FAS; unit inferred): 9.54 µM
CC1(Cc2ccccc2)SC(=O)C=C1O (stereo not shown)	Neg		Neg	Neg	57 µg/mL (≈ 259 µM)	67 µg/mL (≈ 304 µM)		128 µg/mL (≈ 581 µM)		299 µg/mL (≈ 1360 µM)	Neg	change in vivo at 60 mg/kg [1, 15]: 1.6%; EF/Tsoy(MIC) ([2]; Trypticase Soy Broth): Neg
CCCCCCCCC1(C)SC(=O)C(C(C)O)=C1OC (stereo not shown)	Neg		Neg	Neg	53.3 ± 2.1 µg/mL (≈ 177 µM)	16.2 ± 3.8 µg/mL (≈ 53.9 µM)	9.32 µM	77 µg/mL (≈ 256 µM)	25 µg/mL (≈ 83.2 µM)	249 µg/mL (≈ 829 µM)		change in vivo at 30 mg/kg [1, 16]: 0.2%
C=CCN(C)C(=O)COC1=CC(=O)SC1(C)CCCCCCCC (stereo not shown)											Neg	change in vivo at 60 mg/kg [1, 11]: 1.5%
C#CCOC1CC(=O)S[C@]1(C)CCCCCC (mixture of isomers)		Neg	Neg	Neg	53 µg/mL	80 µg/mL			83 µg/mL		Neg	Deaths in weight loss screen ([1]; day2, three mice): 3 of 3 dead; change in vivo at 30 mg/kg ([1]; Mus musculus, 72 h, 30 mg/kg, day3, read-out: Weight Loss): 5.9%; EF/MH(MIC) ([2]; Mueller Hinton Broth): Neg; MIC [3, 10]: 203 µg/mL
C=CCOC1=CC(=O)S[C@]1(C)CCCCCC (racemic)	Neg	Neg	Neg	Neg	73 µg/mL (≈ 287 µM)	54 µg/mL (≈ 212 µM)			158 µg/mL (≈ 621 µM)		Neg	Deaths in weight loss screen ([1]; day2, three mice): 2 of 3 dead; change in vivo at 30 mg/kg ([1]; Mus musculus, 48 h, 30 mg/kg, day2, read-out: Weight Loss): 8.8%; EF/MH(MIC) ([2]; Mueller Hinton Broth): Neg
C=CCNC(=O)COC1=CC(=O)S[C@]1(C)CCCCCCCCCC (racemic)			Neg	Neg	28 µg/mL (≈ 76.2 µM)	31 µg/mL (≈ 84.3 µM)					Neg	change in vivo at 15 mg/kg [1, 14]: 0%; change in vivo at 30 mg/kg [1, 16]: 1.8%
